# Experimental data published in article PMC11129195, “Novel Re(I) Complexes as Potential Selective Theranostic Agents in Cancer Cells and In Vivo in Caenorhabditis elegans Tumoral Strains” (Journal of Medicinal Chemistry, 2024).
# Experiments:
# [1] = system: A2780 cells; assay: Mitochondrial membrane potential, JC-1 staining; type: cell-based, human; settings: Re9 1.25 and 2.5 μM, 24 h, antimycin A 6 h
# Protocol: After the treatment period, the cells were collected and resuspended in prewarmed PBS containing JC-1 (1 μM). The cell suspension was then incubated for 30 min at 37 °C. Following the incubation, the cells were washed twice with PBS and immediately analyzed using a flow cytometer (FACSCAlibur Beckton Dickinson). Fluorescence measurements were performed by detecting both the monomeric (emission at 530 ± 30 nm; green) and aggregated (emission at 585 ± 30 nm; red) forms of JC-1 upon excitation at 488 nm. For each sample, a total of 10,000 events were acquired during the analysis.
# [2] = system: HeLa; assay: MTT antiproliferative activity in HeLa cells; type: cell-based, human; settings: MTT test, 48 h of treatment
# Protocol: (§1) Human ovarian carcinoma cell lines (A2780) were cultured in RPMI-1640 medium, while the human cervix adenocarcinoma cell line (HeLa), tumor breast cancer cell line, and nontumorigenic buffalo green monkey cells (BGM) were cultured in DMEM and EMEM (containing nonessential amino acids) medium. The cell culture media were supplemented with 10% fetal bovine serum (FBS), 1% L-glutamine, and 1% penicillin/streptomycin. The cells were maintained in a humidified incubator at 37 °C with a 5% CO2 atmosphere and subcultured 2–3 times a week, each with an appropriate density for its specific cell line. Prior to the experiments, the cell lines were confirmed to be free from mycoplasma contamination using Hoechst DNA staining standard procedures. During cell-based assays, the maximum amount of dimethyl sulfoxide (DMSO) added as a solvent for treatment was limited to 0.4% (v/v) to avoid any potential vehicle-induced toxicity to the cells. Cells were cultured in 96-well plates and allowed to reach confluence. The tested compounds were dissolved in DMSO at a maximum concentration of 0.4% (v/v) and immediately diluted with fresh media. The cells were then incubated with varying concentrations of the Re1–Re9 for 48 h at 37 °C. […] The absorbance at 570 nm was measured using a microplate reader (FLUOstar Omega).
# [3] = system: A2780; assay: MTT antiproliferative activity in A2780 cells; type: cell-based, human; settings: MTT test, 48 h of treatment
# Protocol: as §1
# [4] = system: BGM; assay: MTT test in nontumorigenic BGM cells; type: cell-based, buffalo green monkey; settings: 48 h of treatment, normal cells
# Protocol: as §1
# [5] = system: A2780 cells; assay: Scanning electron microscopy of cell morphology; type: cell-based, human; settings: A2780, 24 h
# Protocol: A2780 cells were treated with CDDP and Re9 for 24 h. Cells then were fixed with 4% PFA fix solution for 30 min and washed with PBS three times. Sample were dehydrated through a graded series of ethanol (30, 50, 70, 95, and 100%), dried by the tertiary butanol method, and then imaged with a SEM operating at 20.0 kV.
# [6] = system: A2780 cells; assay: Annexin V-FITC/PI dual staining, flow cytometry; type: cell-based, human; settings: 10 μM, 24 h
# Protocol: The annexin V/PI assay was performed following the instructions provided by the manufacturer (Roche). A2780 cells were seeded in 12-well plates at a density of 3 × 10^5 cells/well and incubated overnight. […] After the treatment, the cells were collected and stained with annexin V and PI, following the procedure mentioned earlier. The staining was carried out at room temperature for 15 min in the absence of light, and the samples were immediately analyzed using flow cytometry (FACSCalibur Beckton Dickinson) with an excitation wavelength of 488 nm. The absorbance at 488 nm of compound Re9 was considered negligible. The data obtained from the assay were analyzed using FlowJo Software (TreeStar).
# [7] = system: A2780 cells; assay: DNA damage by pH2AX staining, flow cytometry; type: cell-based, human; settings: A2780, 24 h
# Protocol: DNA damage was evaluated by flow cytometry in A2780 cells. […] Cells were then collected by trypsinization, washed with PBS, and fixed in 200 μL 0.2% PFA for 5 min. After fixation, cells were pelleted, suspended in a 3% FBS solution containing anti phospho-H2AX ([…]) FITC-conjugated monoclonal antibody (CR55T33, eBioscience) at a concentration of 0.6 μg/mL, and incubated for 2 h at room temperature in the dark. Analysis of stained cells was carried out using a Becton Dickinson FACSCalibur flow cytometer with 10,000 acquisitions per sample, registering the FL1-H channel (λexc = 488 nm). Two independent experiments, each with n = 2, were conducted.
# [8] = system: C. elegans strain MT2124; type: in vivo, Caenorhabditis elegans
# From the text: Caenorhabditis elegans strains JK1466 [gld-1(q485)/dpy-5(e61) unc-13(e51)] and MT2124 [let-60(n1046)] were kindly donated by the Caenorhabditis Genetic Center (CGC, Saint Paul, Minnesota, United States), which is funded by the “NIH Office of Research Infrastructure Programs” (P40 OD010440). The strains were maintained and cultured following the protocols established by Stiernagle.[78]−[80] Synchronous cohorts of C. elegans prepared using the bleach method were used in all the assays.
# MT2124 (Muv phenotype) L1 larvae were incubated for 72 h at 20 °C in S basal medium with different concentrations of Re9 (0.1–150 μM) supplemented with E. coli OP50. Antitumoral evaluation was performed following the protocol described by Medina and coauthors with modifications.[81] Ten microliters of a suspension containing young adult nematodes were place in a microscope slide along with 10 μL of sodium azide to reduce its movement. Images of whole worms were taken at 10× magnification using the bright-field microscope. The animals were classified as multivulva (MT) if they had more than one vulva protruding from the […] (Figure 12B) or wild-type if they only had one (WT). Then, the percentage of multivulva animals were calculated with eq 1. [drawing 1] 1
# Additionally, the number of vulvas of the multivulva animals were counted. Two independent assays were performed with n ≥ 25 and the statistical significance was estimated by the ANOVA test.
# [9] = system: C. elegans strain JK1466; design: method as in earlier work; settings: ref "Recent studies"; cited from earlier work
# [10] = system: wild-type C. elegans; design: method as in PMID 29752286; settings: 100 μM, cited from earlier work
Compound,mitochondrial membrane potential (MMP) levels [1],IC50 [2] [µM],IC50 [3] [µM],IC50 [4] [µM],cell death type from SEM morphology [5],"Q2 cells (annexin V+/PI+, late apoptotic or pyroptotic) [6] [%]","Q3 cells (annexin V+/PI–, early apoptotic) [6] [%]",DNA damage (pH2AX staining) [7],reduction of MT phenotypic incidence ([8]; 50 μM) [%],reduction of the number of vulvas ([8]; 50 μM) [%],"MT (multivulva animals) ([8]; 50 μM, 72 h) [%]","WT (wild-type nematodes) ([8]; 50 μM, 72 h) [%]","n° vulvas ([8]; 50 μM, multivulva phenotype nematodes)",effect of concentrations above 50 μM on the nematodes ([8]; in vivo),reduction of tumor size [9] [%],"progeny, share of the expected brood ([10]; L4 animals) [%]","reduction of animal size ([10]; wild-type larvae, 48 h) [%]","development stage ([10]; wild-type, 48 h)"
"CCCCCC[C@H]1C(=O)O[C@H](C)[C@H](NC(=O)c2cccc(NC=O)c2O)C(=O)O[C@@H](C)[C@@H]1OC(=O)CC(C)C [antimycin A, Antimycin A]",significant decrease in MMP levels,–,–,–,–,–,–,–,–,–,–,–,–,–,–,–,–,–
N.N.[Cl][Pt][Cl] [cisplatin],–,23.3 ± 2,2.9 ± 0.4,6.8 ± 0.9,apoptosis,16.9,13.8,significantly contributed to the induction of DNA damage,58.2,52,34.62,65.38,1.40,developmental arrest,48,10,75,L2 stage
